Results on 11 molecules are retold here after patent US10000471B2, “Pyrazole P38 map kinase inhibitors” (Respivert Limited, priority 2010, dated 2018).

pEC50, pIC50: −log10 of the molar value.

Series [1] deals with T1, p38 MAPKα isoform (MAPK14) (Homo sapiens, UniProt Q16539).
T1 construct: purchased Invitrogen
The series is described as follows: Enzyme inhibition assay (FRET, Z-LYTE), p38 MAPKα via MAPKAP-K2 activation. The format is biochemical. The conditions noted are these: read-out: Enzyme Inhibition IC50 p38α. The method in brief: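 Z-LYTE FRET format, in which protease cleaves only non-phosphorylated peptide, read after 1 h development. Compound was mixed with p38 MAPKα for 2 h at RT, and inhibition was gauged from MAPKAP-K2 activation/phosphorylation rather than directly. Percent inhibition against an uninhibited control was fitted to give IC50.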

A further series has as its target T2, p38 MAPKγ (MAPK12) (Homo sapiens, UniProt P53778).
T2 construct: purchased Invitrogen
T2 sequence (P53778 1-367): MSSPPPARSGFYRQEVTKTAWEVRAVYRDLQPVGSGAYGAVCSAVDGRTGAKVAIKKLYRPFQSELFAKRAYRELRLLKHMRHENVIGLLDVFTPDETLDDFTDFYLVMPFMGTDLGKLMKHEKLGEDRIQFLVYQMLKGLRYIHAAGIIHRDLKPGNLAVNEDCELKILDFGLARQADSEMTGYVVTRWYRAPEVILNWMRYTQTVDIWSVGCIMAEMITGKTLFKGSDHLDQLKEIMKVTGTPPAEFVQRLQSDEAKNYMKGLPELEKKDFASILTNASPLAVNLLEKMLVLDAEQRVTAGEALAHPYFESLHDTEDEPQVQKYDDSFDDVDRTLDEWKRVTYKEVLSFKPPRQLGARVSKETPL
Put plainly: Enzyme inhibition assay (FRET, Z-LYTE), p38 MAPKγ. The format is biochemical. The conditions noted are these: read-out: Enzyme Inhibition IC50 p38γ. The method in brief: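 Z-LYTE FRET readout: after 1 h kinase reaction (ATP 100 μM, peptide 2 μM) following 2 h RT enzyme–compound preincubation in HEPES, protease cleaves only unphosphorylated peptide. Percent inhibition from donor/acceptor ratio relative to control; IC50 fitted from the curve.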

The subject of series [2] is TNFα release in THP-1 cells. The series is described as follows: LPS-induced TNFα release in THP-1 cells. Format: cell-based, human. The conditions noted are these: Homo sapiens. Put shortly: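 IC50 derived from concentration-response of TNFα inhibition relative to vehicle, with TNFα quantified by sandwich ELISA in supernatants. THP-1 cells were challenged 4 hr with LPS (E. coli, 3 μg/mL).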

Series [3] deals with TNFα release in d-U937 cells. The series is described as follows: LPS-induced TNFα release in d-U937 cells. The format is cell-based, human. The conditions noted are these: Homo sapiens, dU937, relative to 10 μg/mL BIRB796, read-out: LPS/TNFα REC50 d-U937. Put shortly: (§1)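 Sandwich ELISA of TNFα and IL-8 in supernatants after 4 hr 0.1 μg/mL LPS (E. coli O111:B4) challenge of U937 cells differentiated with PMA 100 ng/ml for 48–72 hr, compound added 2 hr beforehand. IL-8: IC50 from inhibition versus vehicle; TNFα: REC50 from inhibition as percentage of 10 μg/mL BIRB796 effect.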

Series [4] relates to IL-8 release in d-U937 cells. The series is described as follows: LPS-induced IL-8 release in d-U937 cells. The format is cell-based, human. The conditions noted are these: Homo sapiens, dU937. The method in brief:
as §1

Series [5] concerns ICAM-1 induction in BEAS2B cells. Put plainly: Poly I:C-induced ICAM-1 induction in BEAS2B cells. Format: cell-based, human. The conditions noted are these: Homo sapiens, BEAS-2B, read-out: PolyIC/ICAM1 IC50 BEAS2B. Put shortly:
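IC50 reflects inhibition of cell-surface ICAM-1 relative to vehicle, read by ELISA (OD450 against 655 nm) and divided by crystal violet OD595 for cell number. Readings were taken 18 hr after transfection of 1 μg/mL poly I:C into BEAS2B cells. Compound was added 2 hr before stimulation.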

Series [6] has as its system Differentiated U937 cells. The series is described as follows: Cell viability MTT assay. Format: cell-based, human. The conditions noted are these: negative = apparent increase in viability; for MTT Assay (Viability) 4 h d-U937, percentage loss of cell viability: 4 hr in 5% FCS; for MTT Assay (Viability) 24 h d-U937, percentage loss of cell viability: 24 h in 10% FCS. Put shortly: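 Differentiated U937 cells pre-incubated with compound either 4 hr in 5% FCS or 24 h in 10% FCS, then 1 hr MTT. Formazan dissolved in DMSO, absorbance at 550 nm. Percentage viability loss relative to 0.5% DMSO vehicle; apparent increases appear as negative percentages.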
In general terms: Tetrazolium dyes change colour on reduction, which living cells bring about.

T1 sequence (Q16539 whole entry, canonical isoform): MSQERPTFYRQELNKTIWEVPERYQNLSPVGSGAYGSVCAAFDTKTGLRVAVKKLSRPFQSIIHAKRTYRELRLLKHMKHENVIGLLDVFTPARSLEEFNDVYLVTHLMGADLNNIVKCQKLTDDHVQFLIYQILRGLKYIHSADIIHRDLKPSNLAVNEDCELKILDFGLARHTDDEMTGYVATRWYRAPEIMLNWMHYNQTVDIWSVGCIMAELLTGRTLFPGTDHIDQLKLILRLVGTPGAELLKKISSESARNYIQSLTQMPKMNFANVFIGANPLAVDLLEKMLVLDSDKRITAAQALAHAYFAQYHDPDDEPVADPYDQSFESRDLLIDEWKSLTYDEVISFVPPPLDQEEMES

Consider `COCC(=O)Nc1cc(CSc2ccc(NC(=O)Nc3cc(C(C)(C)C)nn3-c3ccc(OC)cc3)c(Cl)c2Cl)ccn1` [Example 26, N-(4-((4-(3-(3-tert-Butyl-1-(4-methoxyphenyl)-1H-pyrazol-5-yl)ureido)-2,3-dichlorophenylthio)methyl)pyridin-2-yl)-2-methoxyacetamide], for which the pIC50 was 7.54 in series [1]; 5.54 on p38 MAPKγ (MAPK12); 7.01 in series [2]; 6.57 in series [4]; < 6.81 in series [5]. Further, the pEC50 in series [3] is 6.77. Besides, the “MTT Assay (Viability) 4 h d-U937, percentage loss of cell viability” value in series [6] was found to be 10.5%. In addition, the “MTT Assay (Viability) 24 h d-U937, percentage loss of cell viability” value in series [6] is −4.3%.
In the case of `COCC(=O)Nc1cc(Oc2ccc(NC(=O)Nc3cc(C(C)(C)C)nn3-c3ccc(C)cc3)c(Cl)c2)ccn1` [Example 27, N-(4-(4-(3-(3-tert-butyl-1-p-tolyl-1H-pyrazol-5-yl)ureido)-3-chlorophenoxy)pyridin-2-yl)-2-methoxyacetamide], the pIC50 in series [1] was 7.73; at p38 MAPKγ (MAPK12) it was 6.96; in series [2] it was 9.22; in series [4], 8.48; in series [5] it was 8.20. For the same molecule, the pEC50 in series [3] was 9.30. For the same molecule, the “MTT Assay (Viability) 4 h d-U937, percentage loss of cell viability” value in series [6] is given as 7.2%. The “MTT Assay (Viability) 24 h d-U937, percentage loss of cell viability” value in series [6] came out at 54.9%.
`COCC(=O)Nc1cc(Oc2ccc(NC(=O)Nc3cc(C(C)(C)C)nn3-c3ccc(C)cc3)cc2C#N)ccn1` [Example 28, N-(4-(4-(3-(3-tert-butyl-1-p-tolyl-1H-pyrazol-5-yl)ureido)-2-cyanophenoxy)pyridin-2-yl)-2-methoxyacetamide]: the pIC50 is 7.32 in series [1]; 7.52 on p38 MAPKγ (MAPK12); 8.49 in series [2]; 8.15 in series [4]; 7.94 in series [5]. Also, the pEC50 in series [3] is 8.57. Moreover, the “MTT Assay (Viability) 4 h d-U937, percentage loss of cell viability” value in series [6] is listed as −3.8%. The “MTT Assay (Viability) 24 h d-U937, percentage loss of cell viability” value in series [6] worked out at 71.0%.
In the case of `COCC(=O)Nc1cc(Oc2ccc(NC(=O)Nc3cc(C(C)(C)C)nn3-c3ccc(C)cc3)cc2Cl)ccn1` [Example 29, N-(4-(4-(3-(3-tert-butyl-1-p-tolyl-1H-pyrazol-5-yl)ureido)-2-chlorophenoxy)pyridin-2-yl)-2-methoxyacetamide], the pIC50 in series [1] was 7.34; on p38 MAPKγ (MAPK12), 7.34; in series [2] it was 8.66; in series [4] it was 7.75; in series [5] it was 7.11. Further, the pEC50 in series [3] is 9.10. The “MTT Assay (Viability) 4 h d-U937, percentage loss of cell viability” value in series [6] was −0.7%. In addition, the “MTT Assay (Viability) 24 h d-U937, percentage loss of cell viability” value in series [6] turned out to be 30.8%.
`COCC(=O)Nc1cc(Oc2ccc(NC(=O)Nc3cc(C(C)(C)C)nn3-c3ccc(C)cc3)cc2C(F)(F)F)ccn1` [Example 30, N-(4-(4-(3-(3-tert-butyl-1-p-tolyl-1H-pyrazol-5-yl)ureido)-2-trifluoromethylphenoxy)pyridin-2-yl)-2-methoxyacetamide]: the pIC50 in series [1] is 6.79; at p38 MAPKγ (MAPK12), 6.82; in series [2] it was 8.89; in series [4], 8.19; in series [5] it was 8.16. Besides, the pEC50 in series [3] is 8.60. In addition, the “MTT Assay (Viability) 4 h d-U937, percentage loss of cell viability” value in series [6] came to 3.3%. The “MTT Assay (Viability) 24 h d-U937, percentage loss of cell viability” value in series [6] came to 61.6%.
As for `COCC(=O)Nc1cc(Oc2ccc(NC(=O)Nc3cc(C(C)(C)C)nn3-c3ccc(C)cc3)cc2S(C)(=O)=O)ccn1` [Example 31, N-(4-(4-(3-(3-tert-butyl-1-p-tolyl-1H-pyrazol-5-yl)ureido)-2-methylsulfonylphenoxy)pyridin-2-yl)-2-methoxyacetamide], the pIC50 in series [1] was 6.81; at p38 MAPKγ (MAPK12) it was 6.54; in series [2], 6.84; in series [4] it was 6.58; in series [5], 6.97. Further, the pEC50 in series [3] is 6.76. Further, the “MTT Assay (Viability) 4 h d-U937, percentage loss of cell viability” value in series [6] came out at 1.1%. Moreover, the “MTT Assay (Viability) 24 h d-U937, percentage loss of cell viability” value in series [6] amounted to 49.3%.
As to `COCC(=O)Nc1cc(Oc2ccc(NC(=O)Nc3cc(C(C)(C)C)nn3-c3ccc(C)cc3)c(Br)c2)ccn1` [Example 32, N-(4-(3-bromo-4-(3-(3-tert-butyl-1-p-tolyl-1H-pyrazol-5-yl)ureido)phenoxy)pyridin-2-yl)-2-methoxyacetamide], the pIC50 in series [1] was 7.37; at p38 MAPKγ (MAPK12) it was 6.83; in series [2], 8.89; in series [4] it was 7.54; in series [5], 8.19. The pEC50 in series [3] is 9.22. The “MTT Assay (Viability) 4 h d-U937, percentage loss of cell viability” value in series [6] amounted to 17.2%. Further, in series [6], the “MTT Assay (Viability) 24 h d-U937, percentage loss of cell viability” value came to 65.3%.
With `COCC(=O)Nc1cc(Oc2ccc(NC(=O)Nc3cc(C(C)(C)C)nn3-c3ccc(C)cc3)cc2Br)ccn1` [Example 33, N-(4-(2-bromo-4-(3-(3-tert-butyl-1-p-tolyl-1H-pyrazol-5-yl)ureido)phenoxy)pyridin-2-yl)-2-methoxyacetamide], the pIC50 in series [1] was 7.60; at p38 MAPKγ (MAPK12), 7.22; in series [2], 8.82; in series [4] it was 8.32; in series [5], 8.52. In addition, the pEC50 in series [3] is 8.19. Moreover, the “MTT Assay (Viability) 4 h d-U937, percentage loss of cell viability” value in series [6] is reported as −12.6%. Further, the “MTT Assay (Viability) 24 h d-U937, percentage loss of cell viability” value in series [6] is recorded as 68.9%.
For the molecule `COCC(=O)Nc1cc(Oc2ccc(NC(=O)Nc3cc(C(C)(C)C)nn3-c3ccc(C)cc3)c(F)c2F)ccn1` [Example 34, N-(4-(4-(3-(3-tert-butyl-1-p-tolyl-1H-pyrazol-5-yl)ureido)-2,3-difluorophenoxy)pyridin-2-yl)-2-methoxyacetamide], the pIC50 in series [1] is 6.87; on p38 MAPKγ (MAPK12) it was 7.62; in series [2] it was 9.40; in series [4], 8.66; in series [5], 8.60. The pEC50 in series [3] is 9.52. Besides, the “MTT Assay (Viability) 4 h d-U937, percentage loss of cell viability” value in series [6] stood at 2.4%. Also, in series [6], the “MTT Assay (Viability) 24 h d-U937, percentage loss of cell viability” value worked out at 82.1%.
As for `COCC(=O)Nc1cc(Oc2ccc(NC(=O)Nc3cc(C(C)(C)C)nn3-c3ccc(C)cc3)c(Cl)c2F)ccn1` [Example 35, N-(4-(4-(3-(3-tert-butyl-1-p-tolyl-1H-pyrazol-5-yl)ureido)-3-chloro-2-fluorophenoxy)pyridin-2-yl)-2-methoxyacetamide], the pIC50 in series [1] was 7.61; on p38 MAPKγ (MAPK12) it was 6.87; in series [2], 9.22; in series [4], 8.55; in series [5] it was 8.82. In series [3], the pEC50 was 9.30. Further, the “MTT Assay (Viability) 4 h d-U937, percentage loss of cell viability” value in series [6] is −0.2%. Moreover, the “MTT Assay (Viability) 24 h d-U937, percentage loss of cell viability” value in series [6] is reported as 73.1%.
Turning to `COCC(=O)Nc1cc(Oc2ccc(NC(=O)Nc3cc(C(C)(C)C)nn3-c3ccc(C)cc3)c(Cl)c2Cl)ccn1` [Example 36, N-(4-(4-(3-(3-tert-butyl-1-p-tolyl-1H-pyrazol-5-yl)ureido)-2,3-dichlorophenoxy)pyridin-2-yl)-2-methoxyacetamide], the pIC50 in series [1] was 7.74; at p38 MAPKγ (MAPK12) it was 6.42; in series [2] it was 8.66; in series [4], 8.47; in series [5] it was 8.72. Moreover, in series [3], the pEC50 was 9.15. The “MTT Assay (Viability) 4 h d-U937, percentage loss of cell viability” value in series [6] is given as −11.2%. The “MTT Assay (Viability) 24 h d-U937, percentage loss of cell viability” value in series [6] was found to be 68.8%.
